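Briefly, cells in 96-well plates were exposed to five compound concentrations for 48 h, and endpoints were estimated by linear interpolation. TGI: concentration producing complete growth inhibition.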

One test has as its system NCI-H23 lung. Briefly: NCI anticancer screen, dose series, 48 h.
Consider `O=C1N[C@@H]2CCC[C@@H]2[C@@H]1c1ccc(Cl)cc1`, for which the TGI is more than 100 µM.
Same read-out and setting: under `CC1(C)O[C@H]2OC3CCC(=O)CC3(O)[C@H]2O1` (stereo not given in full) stands more than 100 µM; under `Cc1cc2c(cc1C)NC1=C(N2)OC(c2c[nH]c3ccc(COc4ccccc4)cc23)C1=O` (stereo not given), more than 100 µM; under `O=C(O)C1=NN(c2ccc(S(=O)(=O)O)cc2)C2(C1)C(Cl)C(=O)N2c1nc2ccccc2s1` (stereo not given), 30.2 µM.

For the next test, the system named is HCC-2998 colon. The test can be described thus: NCI anticancer screen, dose series, 48 h.
Regarding `CC1(C)O[C@H]2OC3CCC(=O)CC3(O)[C@H]2O1` (stereo not given in full), the TGI was more than 100 µM.
Compound `Cc1cc2c(cc1C)NC1=C(N2)OC(c2c[nH]c3ccc(COc4ccccc4)cc23)C1=O` (stereo not given) gave a TGI of 98.5 µM.
The same measure, in the same setting: under `O=C(O)C1=NN(c2ccc(S(=O)(=O)O)cc2)C2(C1)C(Cl)C(=O)N2c1nc2ccccc2s1` (stereo not given) stands 33.4 µM.

A further test concerns SNB-19 CNS. The test can be described thus: NCI anticancer screen, dose series, 48 h.
With `O=C1N[C@@H]2CCC[C@@H]2[C@@H]1c1ccc(Cl)cc1`, the TGI was more than 100 µM.
Same read-out and setting: under `CC1(C)O[C@H]2OC3CCC(=O)CC3(O)[C@H]2O1` (stereo not given in full) stands more than 100 µM; under `Cc1cc2c(cc1C)NC1=C(N2)OC(c2c[nH]c3ccc(COc4ccccc4)cc23)C1=O` (stereo not given), more than 100 µM; under `O=C(O)C1=NN(c2ccc(S(=O)(=O)O)cc2)C2(C1)C(Cl)C(=O)N2c1nc2ccccc2s1` (stereo not given), 64.8 µM.

A further test has as its system RXF 393 renal. Briefly: NCI anticancer screen, dose series, 48 h.
In the case of `O=C1N[C@@H]2CCC[C@@H]2[C@@H]1c1ccc(Cl)cc1`, the TGI was more than 100 µM.
Still for that read-out and setting: under `CC1(C)O[C@H]2OC3CCC(=O)CC3(O)[C@H]2O1` (stereo not given in full) stands more than 100 µM; under `Cc1cc2c(cc1C)NC1=C(N2)OC(c2c[nH]c3ccc(COc4ccccc4)cc23)C1=O` (stereo not given), more than 100 µM.
In the case of `O=C(O)C1=NN(c2ccc(S(=O)(=O)O)cc2)C2(C1)C(Cl)C(=O)N2c1nc2ccccc2s1` (stereo not given), the TGI worked out at 34.8 µM.

The next test deals with MCF7 breast. Briefly: NCI anticancer screen, dose series, 48 h.
The compound `CC1(C)O[C@H]2OC3CCC(=O)CC3(O)[C@H]2O1` (stereo not given in full) returned a TGI of more than 100 µM.
`Cc1cc2c(cc1C)NC1=C(N2)OC(c2c[nH]c3ccc(COc4ccccc4)cc23)C1=O` (stereo not given) gave a TGI of more than 100 µM.
Still for that read-out and setting: under `O=C(O)C1=NN(c2ccc(S(=O)(=O)O)cc2)C2(C1)C(Cl)C(=O)N2c1nc2ccccc2s1` (stereo not given) stands 29.9 µM.

In a further test the test system is DLD-1 colon. Briefly: NCI anticancer screen, dose series, 48 h.
`CC1(C)O[C@H]2OC3CCC(=O)CC3(O)[C@H]2O1` (stereo not given in full) returned a TGI of more than 100 µM.

Another test concerns MOLT-4 leukemia. Briefly: NCI anticancer screen, dose series, 48 h.
As for `O=C1N[C@@H]2CCC[C@@H]2[C@@H]1c1ccc(Cl)cc1`, the TGI is more than 100 µM.
Compound `CC1(C)O[C@H]2OC3CCC(=O)CC3(O)[C@H]2O1` (stereo not given in full) displayed a TGI of more than 100 µM.
The compound `Cc1cc2c(cc1C)NC1=C(N2)OC(c2c[nH]c3ccc(COc4ccccc4)cc23)C1=O` (stereo not given) had a TGI of more than 100 µM.
Consider `O=C(O)C1=NN(c2ccc(S(=O)(=O)O)cc2)C2(C1)C(Cl)C(=O)N2c1nc2ccccc2s1` (stereo not given), for which the TGI turned out to be 39.6 µM.

The next test concerns EKVX NSCLC. The test can be described thus: NCI anticancer screen, dose series, 48 h.
On to `O=C1N[C@@H]2CCC[C@@H]2[C@@H]1c1ccc(Cl)cc1`, for which the TGI was more than 100 µM.
The same measure, in the same setting: next, `CC1(C)O[C@H]2OC3CCC(=O)CC3(O)[C@H]2O1` (stereo not given in full): more than 100 µM.
Consider `Cc1cc2c(cc1C)NC1=C(N2)OC(c2c[nH]c3ccc(COc4ccccc4)cc23)C1=O` (stereo not given), for which the TGI is more than 100 µM.
Same read-out and setting: next, `O=C(O)C1=NN(c2ccc(S(=O)(=O)O)cc2)C2(C1)C(Cl)C(=O)N2c1nc2ccccc2s1` (stereo not given): 34.3 µM.

The next test relates to 786-0 renal. Briefly: NCI anticancer screen, dose series, 48 h.
Compound `CC1(C)O[C@H]2OC3CCC(=O)CC3(O)[C@H]2O1` (stereo not given in full) had a TGI of more than 100 µM.
On to `Cc1cc2c(cc1C)NC1=C(N2)OC(c2c[nH]c3ccc(COc4ccccc4)cc23)C1=O` (stereo not given), for which the TGI was more than 100 µM.
Same read-out and setting: next, `O=C(O)C1=NN(c2ccc(S(=O)(=O)O)cc2)C2(C1)C(Cl)C(=O)N2c1nc2ccccc2s1` (stereo not given): 32 µM.

The test system of the next test is HS 578T breast. The test can be described thus: NCI anticancer screen, dose series, 48 h.
Turning to `CC1(C)O[C@H]2OC3CCC(=O)CC3(O)[C@H]2O1` (stereo not given in full), the TGI is more than 100 µM.
Still for that read-out and setting: next, `Cc1cc2c(cc1C)NC1=C(N2)OC(c2c[nH]c3ccc(COc4ccccc4)cc23)C1=O` (stereo not given): more than 100 µM.
`O=C(O)C1=NN(c2ccc(S(=O)(=O)O)cc2)C2(C1)C(Cl)C(=O)N2c1nc2ccccc2s1` (stereo not given): the TGI was more than 100 µM.

The test system of the next test is COLO 205 colon. The test can be described thus: NCI anticancer screen, dose series, 48 h.
Regarding `O=C1N[C@@H]2CCC[C@@H]2[C@@H]1c1ccc(Cl)cc1`, the TGI is more than 100 µM.
Still for that read-out and setting: next, `CC1(C)O[C@H]2OC3CCC(=O)CC3(O)[C@H]2O1` (stereo not given in full): more than 100 µM; `Cc1cc2c(cc1C)NC1=C(N2)OC(c2c[nH]c3ccc(COc4ccccc4)cc23)C1=O` (stereo not given): more than 100 µM; `O=C(O)C1=NN(c2ccc(S(=O)(=O)O)cc2)C2(C1)C(Cl)C(=O)N2c1nc2ccccc2s1` (stereo not given): 35.1 µM.

In the next test the test system is IGROV1 ovarian. Briefly: NCI anticancer screen, dose series, 48 h.
Compound `O=C1N[C@@H]2CCC[C@@H]2[C@@H]1c1ccc(Cl)cc1` returned a TGI of more than 100 µM.
For `CC1(C)O[C@H]2OC3CCC(=O)CC3(O)[C@H]2O1` (stereo not given in full), the TGI was more than 100 µM.
The same measure, in the same setting: next, `Cc1cc2c(cc1C)NC1=C(N2)OC(c2c[nH]c3ccc(COc4ccccc4)cc23)C1=O` (stereo not given): more than 100 µM; `O=C(O)C1=NN(c2ccc(S(=O)(=O)O)cc2)C2(C1)C(Cl)C(=O)N2c1nc2ccccc2s1` (stereo not given): 21.5 µM.

The test system of another test is CAKI-1 renal. Briefly: NCI anticancer screen, dose series, 48 h.
`O=C1N[C@@H]2CCC[C@@H]2[C@@H]1c1ccc(Cl)cc1` returned a TGI of more than 100 µM.
`CC1(C)O[C@H]2OC3CCC(=O)CC3(O)[C@H]2O1` (stereo not given in full) showed a TGI of more than 100 µM.
Still for that read-out and setting: next, `Cc1cc2c(cc1C)NC1=C(N2)OC(c2c[nH]c3ccc(COc4ccccc4)cc23)C1=O` (stereo not given): more than 100 µM.
Same read-out and setting: next, `O=C(O)C1=NN(c2ccc(S(=O)(=O)O)cc2)C2(C1)C(Cl)C(=O)N2c1nc2ccccc2s1` (stereo not given): 31.5 µM.

Another test has as its system HOP-92 NSCLC. The test can be described thus: NCI anticancer screen, dose series, 48 h.
`CC1(C)O[C@H]2OC3CCC(=O)CC3(O)[C@H]2O1` (stereo not given in full) displayed a TGI of more than 100 µM.
Same read-out and setting: next, `Cc1cc2c(cc1C)NC1=C(N2)OC(c2c[nH]c3ccc(COc4ccccc4)cc23)C1=O` (stereo not given): more than 100 µM; `O=C(O)C1=NN(c2ccc(S(=O)(=O)O)cc2)C2(C1)C(Cl)C(=O)N2c1nc2ccccc2s1` (stereo not given): 48.8 µM.

For a further test, the system named is SN12C renal. Briefly: NCI anticancer screen, dose series, 48 h.
For `O=C1N[C@@H]2CCC[C@@H]2[C@@H]1c1ccc(Cl)cc1`, the TGI is more than 100 µM.
Same read-out and setting: under `CC1(C)O[C@H]2OC3CCC(=O)CC3(O)[C@H]2O1` (stereo not given in full) stands more than 100 µM; under `Cc1cc2c(cc1C)NC1=C(N2)OC(c2c[nH]c3ccc(COc4ccccc4)cc23)C1=O` (stereo not given), more than 100 µM; under `O=C(O)C1=NN(c2ccc(S(=O)(=O)O)cc2)C2(C1)C(Cl)C(=O)N2c1nc2ccccc2s1` (stereo not given), 43.7 µM.

The test system of a further test is OVCAR-5 ovarian. The test can be described thus: NCI anticancer screen, dose series, 48 h.
As to `CC1(C)O[C@H]2OC3CCC(=O)CC3(O)[C@H]2O1` (stereo not given in full), the TGI is more than 100 µM.
In turn, `Cc1cc2c(cc1C)NC1=C(N2)OC(c2c[nH]c3ccc(COc4ccccc4)cc23)C1=O` (stereo not given) displayed a TGI of more than 100 µM.
Regarding `O=C(O)C1=NN(c2ccc(S(=O)(=O)O)cc2)C2(C1)C(Cl)C(=O)N2c1nc2ccccc2s1` (stereo not given), the TGI came out at 32.8 µM.

The values are drawn from PubChem BioAssay (NCI).
